From US6713445B1, “Peptides for treatment of HIV infection” (Advanced Immuni T, Inc., priority 1998, dated 2004)
Where a SMILES comes first, the peptide text is derived from it.

System: GP120-Mediated Neurotoxicity
Test: Neuronal survival assay with 1 pM gp120 (count of neuron-specific enolase positive cells)
Assay type: cell-based
Settings: together with 1 pM gp120 (RF isolate), primary cultures of mixed rat neurons glia; for inhibition of neuronal death caused by gp120 (in words): dose-dependent; for protection against gp120 neuronal death: peptide at 10 μM
Description: Materials: A gp120 isolate RFII was obtained from Dr. P. Nara, NCI, NIH. All of the gp120's are purified, >95% homogeneous and previously tested for neurotoxicity with cultured neurons and were used at 1 pM final concentration in cultures of neurons. Peptides of the formula Ile-Lys-Glu-Tyr-Phe-Thr-Ser (SEQ. ID NO: 2), Ile-Lys-Glu-Tyr-Phe (SEQ. ID NO: 3), and Leu-Glu-Ser-Tyr-Thr (SEQ. ID NO: 1), were obtained from Peninsula Labs, CA. and synthesized by solid-phase Merrified methods and purified to greater than 95% homogeneity by two HPLC methods and structure confirmed by MASS Spectroscopy Analysis.
Neuronal cell culture: Dissociated hippocampal cultures are prepared from neonatal (day 2) rat cortex and hippocampus by known methods. Sterilely dissected brain tissue is minced and treated with 0.125% trypsin for 30 minutes then gently triturated with fire-polished Pasteur pipes and plated in six-well trays (35 mm^2) at low density (50,000 cells/35 mm^2 dish) upon confluent layers of astrocytes in medium containing D-MEM, penicillin (25 U/ml), streptomycin ([…]), D-glucose (0.6%), and 10% heat-inactivated fetal calf serum (HyClone Laboratories), supplemented with insulin, transferrin, selenium, corticosterone, and triiodothyronine. Medium is changed after 3 days. At 6 days, half the medium is exchanged for fresh medium. The astrocyte feeder layers were prepared from the cortexes of neonatal rats following dissection and trituration. Plating was 2.5×10^2 cells per well. Feeder layers were grown in Eagles's minimal essential medium (Formula No. 82-0234DJ, Gibco) with 10% fetal calf serum until confluent (7-14 days). With this medium the feeder cultures were free of neurons and consisted of flat cells that were stained by antibodies to glial fibrillary acidic protein, a standard immunocytochemical marker for astroglia. When hippocampal or cortical cells were added to the confluent feeder layer, the medium was changed to the following composition: 5% horse serum and MEM supplement with defined medium components. The hippocampal or cortical cultures were treated with 5′-fluoro-2′-deoxyuridine (15 ug/ml plus uridine, 35 ug/ml) to suppress the overgrowth of background cells and allow the establishment of neurons. The neurons in these cultures are post-mitotic. The neuronal cultures were allowed to grow for 1 week prior to the beginning of the experimental period. Before treating the cultures, a complete change of medium was given.
Neuronal survival assay: GP120's, with or without added peptides, were diluted in phosphate buffered saline and added to the cultures, which were treated only once for a four day period. At termination, cultures were fixed with glutaraldehyde as previously described. At the end of the test period, neuronal survival was assessed by immunohistochemical detection of neuron-specific enolase positive cells (neurons). Cultures were counted in a blinded fashion without knowledge of sample treatment in 40 fields at pre-determined coordinate locations. The total area counted is 50 mm^2. Each value reported is the mean±the standard error of 3-4 determinations. Control (saline treated) wells from these cultures have 395±20 neurons. Statistical comparisons between experimental and control culture neuronal cell counts are via analysis of variance with the Student-Newman-Kuels multiple comparison of means test.
The dotted line in FIG. 1 represents the mean number of neurons in control cultures.

CC[C@H](C)[C@H](N)C(=O)N[C@@H](CCCCN)C(=O)N[C@@H](CCC(=O)O)C(=O)N[C@@H](Cc1ccc(O)cc1)C(=O)N[C@@H](Cc1ccccc1)C(=O)N[C@H](C(=O)N[C@@H](CO)C(=O)O)[C@@H](C)O [IKEYFTS, Ile-Lys-Glu-Tyr-Phe-Thr-Ser] (H-IKEYFTS-OH; N-terminus and C-terminus assumed)
inhibition of neuronal death caused by gp120 (in words): preventing neuronal loss | protection against gp120 neuronal death: fully protective | EC50 (read-out: EC50 for preventing neuronal loss caused by gp120, four day period): 100 nM

Ile-Lys-Glu-Tyr-Phe (IKEYF; mammalian) [shorter pentapeptide used to show specificity]
inhibition of neuronal death caused by gp120 (in words): inactive

Leu-Glu-Ser-Tyr-Thr (LESYT; mammalian)
inhibition of neuronal death caused by gp120 (in words): preventing neuronal loss | protection against gp120 neuronal death: partially protective
